Test results: patent US20230293535A1, “ERBB/BTK INHIBITORS” (Dizal (Jiangsu) Pharmaceutical Co., Ltd., priority 2018, published 2023)

Key:
Type in all cases: cell-based
[1] = tested on: Her2 exon 20 insertion YVMA transduced NIH-3T3 cell line; assay: Cell proliferation, Her2 YVMAins NIH-3T3 (CellTiter-Glo, 72 h); details: Mus musculus, NIH3T3, 72 h, Her2 YVMAins cells, 72 h proliferation; read-out: Her2 Exon 20 YVMA insertion GI50;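 also: viable cells quantified by ATP luminescence, growth over a day-zero baseline plate expressed as percent of DMSO control growth, compound dilution series in 10% FBS medium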
[2] = target: T1, WT EGFR (Homo sapiens, UniProt P00533); assay: WT EGFR cellular phosphorylation inhibition in A-431 (hEGF stimulated, MSD); details: A431 cells, 4 h compound, then 100 ng/ml hEGF 10 min;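 also: electrochemiluminescence read-out of EGFR Tyr1068 phosphorylation expressed as ratio to total EGFR, cells kept in medium with 1% FBS, compounds tested as a concentration series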
T1 construct: host or cells: A-431

[3] = tested on: Ri-1 cells; assay: BTK (wt) cell proliferation, Ri-1 (CellTiter-Glo, 72 h); details: Ri-1, 72 h, Ri-1 cells, 72 h, CellTiter-Glo; read-out: BTK WT Ri-1 GI50;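 also: viable cells quantified as cellular ATP luminescence, proliferation normalized to a time-zero plate and the DMSO control, compounds tested across a dilution series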
[4] = target: T2, human EGFR exon 20 V769_D770insASV (Homo sapiens, UniProt P00533, INS769ASV); assay: EGFR Exon20 ASV insertion cellular phosphorylation inhibition (MSD pEGFR Y1068/total EGFR); details: Ba/F3 EGFR ASV ins cells, 4 h compound, p-EGFR(Y1068)/total EGFR;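 also: electrochemiluminescent readout on an MSD SECTOR Imager, IL3-independent transduced cells in medium with 1% FBS, compound concentration series at 37 °C and 5% CO2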
T2 construct: expressed in transfected cells; host or cells: Ba/F3 (DSMZ ACC-300), lentiviral transduction, puromycin selection, IL3 depletion

[5] = target: T3, human EGFR exon 20 H773_V774insNPH (Homo sapiens, UniProt P00533, INS773NPH); assay: EGFR Exon20 NPH insertion cellular phosphorylation inhibition (MSD pEGFR Y1068/total EGFR); details: Ba/F3 EGFR NPH ins cells, 4 h compound, p-EGFR(Y1068)/total EGFR;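 also: IL3-independent Ba/F3 cells with constitutively phosphorylated EGFR, compound exposure at 37 °C under 5% CO2, electrochemiluminescent MSD measurement of the p-EGFR to total EGFR ratio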
T3 construct: host or cells: Ba/F3

[6] = tested on: DB cells; assay: BTK (wt) cell proliferation, DB (CellTiter-Glo, 72 h); details: Homo sapiens, DB, DB cells, CellTiter-Glo, read-out: Non-BCR activated DB GI50;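 also: DB cells in 384-well plates given a dilution series of compound, viable cells read by ATP luminescence, growth expressed versus DMSO control after subtracting a time-zero plate reading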
[7] = tested on: WT EGFR cell line A-431; assay: Cell proliferation, WT EGFR A431 (CellTiter-Glo, 72 h); details: Homo sapiens, A-431, 72 h, A431, 72 h proliferation; read-out: EGFR WT A431 GI50;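 also: proliferation from a luminescent ATP viability signal, expressed as 100 × (treated minus time-zero plate) over (DMSO control minus time-zero plate), cells grown with 10% FBS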
[8] = tested on: Ba/F3 EGFR ASV ins cells; assay: Cell proliferation, Ba/F3 EGFR ASV ins (CellTiter-Glo, 72 h); details: Ba/F3 EGFR, 72 h, Ba/F3 EGFR ASV ins, 72 h proliferation; read-out: EGFR Exon20 ASV insertion GI50;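 also: IL3-independent Ba/F3 cells transduced with EGFR V769_D770insASV, cellular ATP luminescence after compound exposure, growth relative to DMSO control with the day-0 baseline reading subtracted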
[9] = tested on: Ba/F3 EGFR NPH ins cells; assay: Cell proliferation, Ba/F3 EGFR NPH ins (CellTiter-Glo, 72 h); details: Ba/F3 EGFR, 72 h, Ba/F3 EGFR NPH ins, 72 h proliferation; read-out: EGFR Exon20 NPH insertion GI50;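 also: IL3-independent cells carrying constitutively phosphorylated EGFR, compound dilution series, viable cells quantified by ATP luminescence, growth relative to DMSO wells after subtracting pre-dosing (day 0) baseline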
Method: Similar to recombinant human EGFR exon 20 H769_V770insASV Ba/F3 cell line, the recombinant human EGFR exon 20 H773_V774insNPH Ba/F3 cell line also expresses constitutively phosphorylated EGFR protein and proliferates in the absence of IL3, which could be used for in vitro PD and anti-proliferation assays.
WT or mutant cells were seeded in 384 well plates at appropriate concentrations with corresponding growth media supplemented with 10% FBS, for each experiment, identical plates were prepared in duplicates, and the plates were incubated overnight. On the next day, one of each duplicated plates was dosed with tested compounds at a series of concentrations, and another one of the duplicated plate was analysied for G0 value. The dosed plates were incubate for another 72 h at 37° C. with 5% CO2 and the number of viable cells in each well of the G0 plates or the dosed plates were measured by CellTiter-Glo® Luminescent Cell Viability Assay (Promega). This assay is a luminescent method for determining the number viable cells through measurement of cellular ATP concentration by detection of luciferase activity. Detection reagents (15 µl) was dispensed into per well, and the plates were incubate for 30 min at room temperature. Then, the luminescence in each well was measured using the Envision plate reader (PerkinElmer). The percentage of proliferation was calculated based on the formula: %Proliferation= 100 × (G3 value of sample well-Go value)/(G3 value of DMSO control-Go value).

[10] = target: T4, EGFR L858R&T790M (Homo sapiens, UniProt P00533, L858R/T790M); assay: EGFR L858R and T790M cellular phosphorylation inhibition in NCI-H1975 (MSD); details: NCI-H1975 cells, 4 h compound, p-EGFR(Y1068)/total EGFR; read-out: EGFR L858R and T790M mutation IC50;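 also: phosphorylated and total EGFR detected by electrochemiluminescence, cells exposed to compound in medium containing 1% FBS at 37 °C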
T4 construct: host or cells: NCI-H1975

[11] = tested on: TMD-8 cells; assay: BTK (wt) cell proliferation, TMD-8 (CellTiter-Glo, 72 h); details: Homo sapiens, TMD8, 72 h, TMD-8 cells, 72 h, CellTiter-Glo; read-out: BTK WT TMD-8 GI50;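 also: viable cells quantified by ATP-based luminescence, proliferation expressed as percent of DMSO control after subtracting a time-zero baseline plate read at dosing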
Method: OCI-LY-10 at 3,750 cells/well, TMD-8 and Ri-1 at 2,000 cells/well, and DB at 1,250 cells/well, respectively, were sorted into 384-well plates in RPMI1640 medium with 10% FBS. After overnight incubation, all cells were incubated with compound at a series of concentrations. Meanwhile, a duplicated plate of each cell line was prepared for measuring G0 value. The dosed plates were further incubated for 72 hours and the number of viable cells was measured by CellTiter-Glo® Luminescent Cell Viability Assay (Promega), a luminescent method for determining the number of viable cells through measurement of cellular ATP concentration using Envision plate reader (PerkinElmer). The percentage of proliferation was calculated as: % Proliferation = 100 × (G3 value of sample well - G0 value)/(G3 value of DMSO control - G0 value).

[12] = tested on: NCI-H1975 EGFR L858R/T790M cells; assay: Cell proliferation, NCI-H1975 EGFR L858R/T790M (CellTiter-Glo, 72 h); details: Homo sapiens, NCI-H1975, 72 h, NCI-H1975, 72 h proliferation; read-out: EGFR L858R and T790M mutation GI50;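 also: viable cells quantified by luciferase-based ATP luminescence, proliferation expressed relative to DMSO-treated wells (100%) after subtracting a parallel plate read at the time of dosing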
[13] = tested on: OCI-LY-10 cells; assay: BTK (wt) cell proliferation, OCI-LY-10 (CellTiter-Glo, 72 h); details: Homo sapiens, OCI-Ly10, 72 h, OCI-LY-10 cells, 72 h, CellTiter-Glo; read-out: BTK WT OCI-LY-10 GI50;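 also: viable cells quantified via cellular ATP luminescence, proliferation given as percent of DMSO control after subtracting a duplicate plate read at time of dosing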
[14] = target: T5, human Her2 exon 20 insertion mutation YVMA (Homo sapiens, UniProt P04626, INS775YVMA); assay: Her2 Exon 20 YVMA insertion cellular phosphorylation inhibition (MSD p-Her2 Y1248/total Her2); details: Her2 YVMAins cells, 4 h compound;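 also: lentivirally transduced NIH-3T3 cells in 1% FBS medium, electrochemiluminescent MSD read-out, graded compound concentrations at 37 °C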
T5 construct: expressed in transfected cells; host or cells: NIH-3T3, lentiviral transduction, puromycin selection
T5 sequence (P04626 with tags, fused parts or gaps INS775YVMA): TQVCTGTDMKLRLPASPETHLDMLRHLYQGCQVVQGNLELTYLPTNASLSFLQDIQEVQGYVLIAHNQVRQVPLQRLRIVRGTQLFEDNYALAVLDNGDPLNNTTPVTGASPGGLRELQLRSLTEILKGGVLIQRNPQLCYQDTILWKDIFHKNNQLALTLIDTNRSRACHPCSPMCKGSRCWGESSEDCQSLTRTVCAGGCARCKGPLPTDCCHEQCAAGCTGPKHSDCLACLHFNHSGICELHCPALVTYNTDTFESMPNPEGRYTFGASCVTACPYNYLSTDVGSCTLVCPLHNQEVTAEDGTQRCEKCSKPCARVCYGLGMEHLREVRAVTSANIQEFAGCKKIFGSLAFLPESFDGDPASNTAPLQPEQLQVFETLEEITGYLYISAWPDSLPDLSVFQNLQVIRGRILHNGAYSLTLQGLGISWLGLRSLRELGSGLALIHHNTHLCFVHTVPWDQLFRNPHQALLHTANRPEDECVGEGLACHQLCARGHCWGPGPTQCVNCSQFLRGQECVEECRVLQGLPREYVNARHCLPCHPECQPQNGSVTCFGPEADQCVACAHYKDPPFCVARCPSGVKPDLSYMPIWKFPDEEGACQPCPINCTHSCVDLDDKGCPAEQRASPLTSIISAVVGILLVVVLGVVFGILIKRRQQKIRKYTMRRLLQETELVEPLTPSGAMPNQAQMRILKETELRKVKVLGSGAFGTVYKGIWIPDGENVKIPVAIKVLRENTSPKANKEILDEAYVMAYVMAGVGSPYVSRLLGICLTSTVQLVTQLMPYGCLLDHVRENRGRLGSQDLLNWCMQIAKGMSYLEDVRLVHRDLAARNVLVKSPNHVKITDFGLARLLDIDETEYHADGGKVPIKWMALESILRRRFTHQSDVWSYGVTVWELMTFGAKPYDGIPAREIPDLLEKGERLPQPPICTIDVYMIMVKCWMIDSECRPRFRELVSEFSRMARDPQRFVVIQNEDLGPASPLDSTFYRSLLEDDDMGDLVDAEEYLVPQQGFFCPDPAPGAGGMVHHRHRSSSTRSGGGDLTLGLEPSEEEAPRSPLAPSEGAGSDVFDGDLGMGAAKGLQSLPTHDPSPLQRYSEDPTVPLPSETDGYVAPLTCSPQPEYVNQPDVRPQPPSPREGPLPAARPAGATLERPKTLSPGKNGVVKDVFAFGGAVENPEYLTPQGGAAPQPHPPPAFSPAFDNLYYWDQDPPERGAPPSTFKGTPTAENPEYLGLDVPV

T1 sequence (P00533 25-1210): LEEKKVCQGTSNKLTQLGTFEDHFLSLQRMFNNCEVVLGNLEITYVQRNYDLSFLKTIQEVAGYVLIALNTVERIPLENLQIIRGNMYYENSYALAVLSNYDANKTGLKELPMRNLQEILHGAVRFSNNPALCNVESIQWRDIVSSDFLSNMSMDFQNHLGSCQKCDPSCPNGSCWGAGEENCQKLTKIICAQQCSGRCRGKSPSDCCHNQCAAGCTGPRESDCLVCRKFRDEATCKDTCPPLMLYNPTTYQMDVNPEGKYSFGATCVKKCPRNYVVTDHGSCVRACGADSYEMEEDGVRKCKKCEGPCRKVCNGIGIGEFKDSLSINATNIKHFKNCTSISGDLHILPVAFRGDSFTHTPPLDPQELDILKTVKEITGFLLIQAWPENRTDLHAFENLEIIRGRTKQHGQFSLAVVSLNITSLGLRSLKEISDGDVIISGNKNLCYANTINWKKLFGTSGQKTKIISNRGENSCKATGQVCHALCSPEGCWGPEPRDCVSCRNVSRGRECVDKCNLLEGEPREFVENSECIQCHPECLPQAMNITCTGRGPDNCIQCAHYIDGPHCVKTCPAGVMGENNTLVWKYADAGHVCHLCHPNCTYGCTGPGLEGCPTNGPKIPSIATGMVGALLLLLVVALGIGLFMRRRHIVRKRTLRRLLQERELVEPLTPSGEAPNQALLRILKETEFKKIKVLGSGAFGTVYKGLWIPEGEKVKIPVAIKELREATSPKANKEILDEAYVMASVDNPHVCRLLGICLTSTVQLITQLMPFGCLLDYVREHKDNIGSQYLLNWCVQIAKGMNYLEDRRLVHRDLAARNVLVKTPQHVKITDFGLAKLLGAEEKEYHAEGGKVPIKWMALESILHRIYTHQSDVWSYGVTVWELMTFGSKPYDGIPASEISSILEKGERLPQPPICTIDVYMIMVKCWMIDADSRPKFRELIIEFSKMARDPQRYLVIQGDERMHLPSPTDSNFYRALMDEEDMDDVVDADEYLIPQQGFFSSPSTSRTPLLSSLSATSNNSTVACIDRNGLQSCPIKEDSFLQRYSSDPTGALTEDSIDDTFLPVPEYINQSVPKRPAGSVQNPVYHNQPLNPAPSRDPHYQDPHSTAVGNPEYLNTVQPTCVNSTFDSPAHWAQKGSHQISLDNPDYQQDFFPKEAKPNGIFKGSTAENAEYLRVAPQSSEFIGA
T2 sequence (P00533 with tags, fused parts or gaps INS769ASV): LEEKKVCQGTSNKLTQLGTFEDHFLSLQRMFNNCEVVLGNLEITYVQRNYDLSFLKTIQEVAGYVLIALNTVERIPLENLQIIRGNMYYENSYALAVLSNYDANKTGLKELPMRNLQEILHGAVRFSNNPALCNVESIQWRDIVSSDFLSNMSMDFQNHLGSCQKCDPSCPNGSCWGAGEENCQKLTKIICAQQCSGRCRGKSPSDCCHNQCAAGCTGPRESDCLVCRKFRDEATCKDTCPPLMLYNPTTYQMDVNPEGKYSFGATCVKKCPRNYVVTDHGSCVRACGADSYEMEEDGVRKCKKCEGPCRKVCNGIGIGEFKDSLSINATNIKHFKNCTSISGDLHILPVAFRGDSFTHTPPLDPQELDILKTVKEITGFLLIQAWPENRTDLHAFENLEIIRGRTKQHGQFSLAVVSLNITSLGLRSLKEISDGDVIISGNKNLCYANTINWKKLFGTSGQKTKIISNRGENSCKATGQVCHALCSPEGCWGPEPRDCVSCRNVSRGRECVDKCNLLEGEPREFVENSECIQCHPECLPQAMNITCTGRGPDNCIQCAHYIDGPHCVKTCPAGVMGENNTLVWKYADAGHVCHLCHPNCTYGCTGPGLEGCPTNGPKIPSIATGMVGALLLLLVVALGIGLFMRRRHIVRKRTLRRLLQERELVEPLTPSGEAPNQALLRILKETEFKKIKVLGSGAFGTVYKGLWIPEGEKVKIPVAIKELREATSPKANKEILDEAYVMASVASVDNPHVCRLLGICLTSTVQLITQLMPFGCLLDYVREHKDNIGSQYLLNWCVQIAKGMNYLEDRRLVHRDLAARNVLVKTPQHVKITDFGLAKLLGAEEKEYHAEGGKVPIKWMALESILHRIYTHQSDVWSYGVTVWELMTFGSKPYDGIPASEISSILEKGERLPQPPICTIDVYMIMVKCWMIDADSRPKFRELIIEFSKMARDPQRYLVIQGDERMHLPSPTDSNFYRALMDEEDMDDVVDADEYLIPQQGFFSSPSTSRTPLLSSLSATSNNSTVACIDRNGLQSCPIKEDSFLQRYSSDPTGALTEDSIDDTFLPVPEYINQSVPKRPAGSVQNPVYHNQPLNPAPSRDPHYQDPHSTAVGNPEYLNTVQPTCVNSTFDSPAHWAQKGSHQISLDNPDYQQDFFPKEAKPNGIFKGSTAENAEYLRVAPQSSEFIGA
T4 sequence (P00533 25-1210 T790M/L858R): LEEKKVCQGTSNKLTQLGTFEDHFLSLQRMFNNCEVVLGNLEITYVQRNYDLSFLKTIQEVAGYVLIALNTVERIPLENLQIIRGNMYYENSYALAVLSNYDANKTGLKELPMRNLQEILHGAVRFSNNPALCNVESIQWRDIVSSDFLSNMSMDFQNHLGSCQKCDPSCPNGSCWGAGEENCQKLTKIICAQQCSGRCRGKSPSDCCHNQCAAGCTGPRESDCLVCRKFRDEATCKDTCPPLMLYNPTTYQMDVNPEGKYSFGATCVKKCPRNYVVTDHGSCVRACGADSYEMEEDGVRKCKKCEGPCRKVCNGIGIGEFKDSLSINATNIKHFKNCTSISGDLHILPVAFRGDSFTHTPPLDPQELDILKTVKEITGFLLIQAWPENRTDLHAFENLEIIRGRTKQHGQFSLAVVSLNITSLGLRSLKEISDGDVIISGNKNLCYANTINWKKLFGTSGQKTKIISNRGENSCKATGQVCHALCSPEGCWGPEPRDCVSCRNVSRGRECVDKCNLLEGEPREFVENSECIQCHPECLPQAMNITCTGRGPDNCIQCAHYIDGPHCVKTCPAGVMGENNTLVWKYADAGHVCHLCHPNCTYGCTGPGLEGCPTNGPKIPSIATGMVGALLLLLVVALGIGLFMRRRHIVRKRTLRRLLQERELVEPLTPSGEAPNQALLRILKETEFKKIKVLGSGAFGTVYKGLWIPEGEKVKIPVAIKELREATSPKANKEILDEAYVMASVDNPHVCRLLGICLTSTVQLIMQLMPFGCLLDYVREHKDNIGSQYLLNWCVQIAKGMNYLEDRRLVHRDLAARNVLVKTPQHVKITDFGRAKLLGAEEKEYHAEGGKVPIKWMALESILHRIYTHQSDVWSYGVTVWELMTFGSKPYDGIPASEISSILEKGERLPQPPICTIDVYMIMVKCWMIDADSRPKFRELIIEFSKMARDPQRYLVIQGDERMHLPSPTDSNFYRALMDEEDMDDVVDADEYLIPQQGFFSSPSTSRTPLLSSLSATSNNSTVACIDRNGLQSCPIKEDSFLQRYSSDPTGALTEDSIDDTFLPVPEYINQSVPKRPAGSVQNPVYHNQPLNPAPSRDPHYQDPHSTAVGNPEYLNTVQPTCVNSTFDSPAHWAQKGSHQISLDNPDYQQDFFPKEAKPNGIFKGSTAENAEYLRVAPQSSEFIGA

| IC50 [2] [nM] | IC50 [4] [nM] | IC50 [5] [nM] | GI50 [7] [nM] | GI50 [8] [nM] | GI50 [9] [nM] | IC50 [10] [nM] | GI50 [12] [nM] | GI50 [13] [nM] | IC50 [14] [nM] | SMILES | GI50 [1] [nM] | GI50 [3] [nM] | GI50 [6] [nM] | GI50 [11] [nM] |
| --- | --- | --- | --- | --- | --- | --- | --- | --- | --- | --- | --- | --- | --- | --- |
| 13.5 | 7.8 | 13 | 13.2 | 19.6 | 25 | 0.3 | 3.7 | 41.5 | 6.1 | C=CC(=O)Nc1cc(Nc2ncnc(Nc3cc(F)c(F)cc3C(C)(C)O)n2)c(OC)cc1N1CC[C@@H]2CN(C)C[C@@H]21 [Compound 17, N-(5-(4-(4,5-difluoro-2-(2-hydroxypropan-2-yl)phenylamino)-1,3,5-triazin-2-ylamino)-4-methoxy-2-((3aR,6aR)-5-methylhexahydropyrrolo[3,4-b]pyrrol-1(2H)-yl)phenyl) acrylamide] | 37.7 | 28 | > 3000 | 53.7 |
| 29.7 | 29.7 | 46.5 | 23.1 | 80.9 | 80 | 0.9 | 9.5 | 10.8 | 21.3 | C=CC(=O)Nc1cc(Nc2ncnc(Nc3cc(F)c(F)cc3C(C)(C)O)n2)c(OC)cc1N1CC[C@@H]1CN(C)C [Compound 19, (R)-N-(5-(4-(4,5-difluoro-2-(2-hydroxypropan-2-yl)phenylamino)-1,3,5-triazin-2-ylamino)-2-(2-((dimethylamino)methyl)azetidin-1-yl)-4-methoxyphenyl)acrylamide] | 163 | 133 | > 3000 | 13 |
| 27.2 | 9.4 | 25.3 | 16.5 | 30.8 | 51.5 | 0.5 | 7.7 | 99.8 | 11.3 | C=CC(=O)Nc1cc(Nc2ncnc(Nc3cc(F)c(F)cc3C(C)(C)O)n2)c(OC)cc1N(C)C[C@H]1CCCN1C [Compound 20, (R)-N-(5-(4-(4,5-difluoro-2-(2-hydroxypropan-2-yl)phenylamino)-1,3,5-triazin-2-ylamino)-4-methoxy-2-(methyl((1-methylpyrrolidin-2-yl)methyl)amino)phenyl)acrylamide] | 68.1 | 56.2 | > 3000 | 103 |

More lines, now with the values behind:

| SMILES | IC50 [2] [nM] | IC50 [4] [nM] | IC50 [5] [nM] | GI50 [7] [nM] | GI50 [8] [nM] | GI50 [9] [nM] | IC50 [10] [nM] | GI50 [12] [nM] | GI50 [13] [nM] | IC50 [14] [nM] | GI50 [1] [nM] | GI50 [3] [nM] | GI50 [6] [nM] | GI50 [11] [nM] |
| --- | --- | --- | --- | --- | --- | --- | --- | --- | --- | --- | --- | --- | --- | --- |
| C=CC(=O)Nc1cc(Nc2ncnc(Nc3cccnc3C(C)(C)O)n2)c(OC)cc1N(C)CCN(C)C [Compound 8, N-(2-((2-(dimethylamino)ethyl)(methyl)amino)-5-(4-(2-(2-hydroxypropan-2-yl)pyridin-3-ylamino)-1,3,5-triazin-2-ylamino)-4-methoxyphenyl)acrylamide] | 43.1 | 117 | 91.1 | 99.8 | 250 | 258 | 2.9 | 32.4 | 88 | 25.7 | 353 | > 3000 | > 3000 | 1780 |
| C=CC(=O)Nc1cc(Nc2ncnc(Nc3ccc(F)c(F)c3C(C)(C)O)n2)c(OC)cc1N(C)CCN(C)C [Compound 9, N-(5-(4-(3,4-difluoro-2-(2-hydroxypropan-2-yl)phenylamino)-1,3,5-triazin-2-ylamino)-2-((2-(dimethylamino)ethyl)(methyl)amino)-4-methoxyphenyl)ac rylamide] | 131 | 62.5 | 51.3 | 83.1 | 191 | 180 | 2 | 44.6 | 309 | 13.9 | 156 | 700 | > 3000 | 551 |
| C=CC(=O)Nc1cc(Nc2ncnc(Nc3cc(F)c(Cl)cc3C(C)(C)O)n2)c(OC)cc1N(C)CCN(C)C [Compound 12, N-(5-(4-(4-chloro-5-fluoro-2-(2-hydroxypropan-2-yl)phenylamino)-1,3,5-triazin-2-ylamino)-2-((2-(dimethylamino)ethyl)(methyl)amino)-4-methoxyphenyl)acrylamide] | 7.6 | 6.4 | 10.8 | 14.2 | 25.3 | 21.5 | 0.3 | 8.4 | 27.8 | 3.4 | 24.5 | 51.2 | > 3000 | 34.5 |
| C=CC(=O)Nc1cc(Nc2ncnc(Nc3ccc(Cl)c(F)c3C(C)(C)O)n2)c(OC)cc1N(C)CCN(C)C [Compound 14, N-(5-(4-(4-chloro-3-fluoro-2-(2-hydroxypropan-2-yl)phenylamino)-1,3,5-triazin-2-ylamino)-2-((2-(dimethylamino)ethyl)(methyl)amino)-4-methoxyphenyl)acrylamide] | 31.3 | 26.5 | 38.4 | 29.1 | 84.1 | 55.4 | 1.1 | 18 | 155 | 15.8 | 58.7 | 136 | > 3000 | 102 |
| C=CC(=O)Nc1cc(Nc2ncnc(Nc3cc(Cl)c(Cl)cc3C(C)(C)O)n2)c(OC)cc1N(C)CCN(C)C [Compound 15, N-(5-(4-(4,5-dichloro-2-(2-hydroxypropan-2-yl)phenylamino)-1,3,5-triazin-2-ylamino)-2-((2-(dimethylamino)ethyl)(methyl)amino)-4-methoxyphenyl)a crylamide] | 8.2 | 7.5 | 15.1 | 7.9 | 21.1 | 32.9 | 0.4 | 7.4 | 4.95 | 3.8 | 32.7 | 6.68 | 1340 | 2.44 |
| C=CC(=O)Nc1cc(Nc2ncnc(Nc3cc(F)c(Cl)c(F)c3C(C)(C)O)n2)c(OC)cc1N(C)CCN(C)C [Compound 16, N-(5-(4-(4-chloro-3,5-difluoro-2-(2-hydroxypropan-2-yl)phenylamino)-1,3,5-triazin-2-ylamino)-2-((2-(dimethylamino)ethyl)(methyl)amino)-4-methoxyphenyl)acrylamide] | 47.6 | 35.1 | 36 | 52.6 | 114 | 81.3 | 0.9 | 33.4 | 250 | 16.5 | 73.4 | 334 | > 3000 | 118 |
| C=CC(=O)Nc1cc(Nc2ncnc(Nc3cc(F)c(F)cc3C(C)(C)O)n2)c(OC)cc1N(C)CCN1CCCC1 [Compound 18] | 58.9 | 42.4 | 61.1 | 42.8 | 91.3 | 93.6 | 1.1 | 10.9 | 276 | 22.1 | 136 | 446 | > 3000 | 81.7 |
